# How the values were obtained:
# A549 = experiment: Antiproliferative activity against human A549 cells assessed as cell growth inhibition after 48 hrs by MTT assay; conditions: A549, 48 h
# [1] = Antiproliferative activity against human SMMC7721 cells assessed as cell growth inhibition after 48 hrs by MTT assay; conditions: SMMC-7721, 48 h
# [2] = molecular target: Vascular endothelial growth factor receptor 2 (Homo sapiens, UniProt P35968); experiment: Inhibition of VEGFR-2 (unknown origin) after 1 hr by ADP-Glo assay
# Sequence of Vascular endothelial growth factor receptor 2 (P35968 whole entry): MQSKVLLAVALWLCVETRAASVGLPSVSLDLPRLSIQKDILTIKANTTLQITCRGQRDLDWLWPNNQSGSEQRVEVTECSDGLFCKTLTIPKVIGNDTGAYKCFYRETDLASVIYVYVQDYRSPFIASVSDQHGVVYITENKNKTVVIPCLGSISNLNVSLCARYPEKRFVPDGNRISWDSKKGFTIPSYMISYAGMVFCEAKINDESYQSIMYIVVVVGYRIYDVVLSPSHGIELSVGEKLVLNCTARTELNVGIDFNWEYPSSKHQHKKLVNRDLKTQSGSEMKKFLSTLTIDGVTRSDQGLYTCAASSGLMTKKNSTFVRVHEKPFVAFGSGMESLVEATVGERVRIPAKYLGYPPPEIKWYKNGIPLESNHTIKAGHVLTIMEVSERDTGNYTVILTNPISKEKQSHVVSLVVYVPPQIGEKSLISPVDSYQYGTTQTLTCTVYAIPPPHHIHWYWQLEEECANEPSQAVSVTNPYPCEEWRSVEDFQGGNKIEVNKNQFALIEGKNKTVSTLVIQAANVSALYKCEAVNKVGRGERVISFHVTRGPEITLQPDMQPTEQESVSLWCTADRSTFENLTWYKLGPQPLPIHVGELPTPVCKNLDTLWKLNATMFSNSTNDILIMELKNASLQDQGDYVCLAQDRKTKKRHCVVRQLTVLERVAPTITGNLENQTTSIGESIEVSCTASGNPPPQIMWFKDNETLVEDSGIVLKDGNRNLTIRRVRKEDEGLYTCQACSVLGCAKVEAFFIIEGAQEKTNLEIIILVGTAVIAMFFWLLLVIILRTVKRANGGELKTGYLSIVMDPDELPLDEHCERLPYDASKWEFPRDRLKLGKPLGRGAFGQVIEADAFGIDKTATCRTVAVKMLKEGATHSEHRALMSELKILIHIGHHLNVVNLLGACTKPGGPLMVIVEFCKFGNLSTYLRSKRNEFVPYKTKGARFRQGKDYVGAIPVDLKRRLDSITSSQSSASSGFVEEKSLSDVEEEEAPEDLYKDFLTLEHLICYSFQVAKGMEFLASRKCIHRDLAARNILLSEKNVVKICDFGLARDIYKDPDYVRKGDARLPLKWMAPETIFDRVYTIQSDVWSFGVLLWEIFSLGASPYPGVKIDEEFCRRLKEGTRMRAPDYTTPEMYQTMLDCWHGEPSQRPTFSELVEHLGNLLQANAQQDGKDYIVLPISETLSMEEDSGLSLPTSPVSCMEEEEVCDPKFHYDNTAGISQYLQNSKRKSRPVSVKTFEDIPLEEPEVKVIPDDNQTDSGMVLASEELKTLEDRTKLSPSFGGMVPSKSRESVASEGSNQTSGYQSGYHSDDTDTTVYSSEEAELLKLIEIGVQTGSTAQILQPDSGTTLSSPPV
SMILES,IC50 (A549),IC50 [1],IC50 [2]
CN(C)CCOc1ccc(NC(=O)Nc2ccc(-c3cccc4[nH]nc(N)c34)cc2)cc1F,> 500000 nM,600 nM,–
Nc1n[nH]c2cccc(-c3ccc(NC(=O)Nc4ccc5c(c4)OCO5)cc3)c12,5230 nM,530 nM,–
COc1ccc(C(=O)OCCN2CCOCC2)cc1NC(=O)Nc1cc(-c2cn[nH]c2)ccc1OC(F)(F)F,> 500000 nM,2550 nM,–
COc1ccc(C(=O)OCCN(C)C)cc1NC(=O)Nc1cc(-c2cccnc2)cc(C(F)(F)F)c1,2490 nM,860 nM,–
Nc1n[nH]c2cccc(-c3cccc(NC(=O)Nc4cc(C(F)(F)F)cc(C(F)(F)F)c4)c3)c12,1510 nM,3540 nM,–
COc1ccc(C(=O)OCCN2CCOCC2)cc1NC(=O)Nc1cc(-c2ccc3[nH]ccc3c2)cc(C(F)(F)F)c1,1240 nM,1770 nM,> 500000 nM
CCN(CC)CCOC(=O)c1ccc(OC)c(NC(=O)Nc2cc(-c3ccc4[nH]ccc4c3)ccc2OC(F)(F)F)c1,990 nM,570 nM,–
COc1ccc(C(=O)OCCN(C(C)C)C(C)C)cc1NC(=O)Nc1cc(-c2cncnc2)ccc1OC(F)(F)F,3970 nM,920 nM,> 500000 nM
Nc1n[nH]c2cccc(-c3cccc(NC(=O)Nc4ccc(Cl)cc4Cl)c3)c12,> 500000 nM,1900 nM,–
Nc1n[nH]c2cccc(-c3cccc(NC(=O)Nc4cccc(Cl)c4)c3)c12,1720 nM,1830 nM,–
Cc1ccnc(NC(=O)Nc2ccc(-c3cccc4[nH]nc(N)c34)cc2)c1,1160 nM,430 nM,> 500 nM
COc1cccc(NC(=O)Nc2cccc(-c3cccc4[nH]nc(N)c34)c2)c1,2490 nM,2860 nM,–
Nc1n[nH]c2cccc(-c3cccc(NC(=O)Nc4ccccc4F)c3)c12,1170 nM,2360 nM,–
COc1ccc(C(=O)OCCN(C)C)cc1NC(=O)Nc1cc(-c2cncnc2)ccc1OC(F)(F)F,14700 nM,6150 nM,–
COc1ccc(C(=O)OCCN(C)C)cc1NC(=O)Nc1cc(-c2cncnc2)cc(C(F)(F)F)c1,1660 nM,1390 nM,> 500000 nM
COc1ccc(C(=O)OCCN(C(C)C)C(C)C)cc1NC(=O)Nc1cc(-c2cnn(C)c2)ccc1OC(F)(F)F,> 500000 nM,> 500000 nM,> 500000 nM
Nc1n[nH]c2cccc(-c3cccc(NC(=O)Nc4cccc(C(F)(F)F)c4)c3)c12,1950 nM,1410 nM,–
COc1ccc(C(=O)OCCN(C(C)C)C(C)C)cc1NC(=O)Nc1cc(-c2ccc3[nH]ccc3c2)cc(C(F)(F)F)c1,1570 nM,410 nM,> 500000 nM
CNC(=O)c1cc(Oc2ccc(NC(=O)Nc3ccc(Cl)c(C(F)(F)F)c3)cc2)ccn1 [SORAFENIB],1450 nM,650 nM,–
COc1ccc(C(=O)OCCN(C(C)C)C(C)C)cc1NC(=O)Nc1cc(-c2cccnc2)cc(C(F)(F)F)c1,1910 nM,730 nM,–

SMILES,IC50 (A549),IC50 [1],IC50 [2]
COc1ccc(C(=O)OCCN(C(C)C)C(C)C)cc1NC(=O)Nc1cc(-c2cn[nH]c2)ccc1OC(F)(F)F,1520 nM,1230 nM,> 500000 nM
Nc1n[nH]c2cccc(-c3cccc(NC(=O)Nc4ccc(F)c(F)c4)c3)c12,3040 nM,5880 nM,> 500 nM
COc1ccc(C(=O)OCCN(C)C)cc1NC(=O)Nc1cc(-c2cccnc2)ccc1OC(F)(F)F,1010 nM,1380 nM,–
Nc1n[nH]c2cccc(-c3cccc(NC(=O)Nc4nccs4)c3)c12,> 500000 nM,550 nM,> 500 nM
CCN(CC)CCOC(=O)c1ccc(OC)c(NC(=O)Nc2cc(-c3cncnc3)ccc2OC(F)(F)F)c1,> 500000 nM,3430 nM,> 500000 nM
Nc1n[nH]c2cccc(-c3cccc(NC(=O)Nc4cccc(F)c4)c3)c12,1360 nM,1240 nM,–
Nc1n[nH]c2cccc(-c3cccc(NC(=O)Nc4ccc(F)cc4)c3)c12,> 500000 nM,> 500000 nM,–
COc1ccc(C(=O)OCCN2CCOCC2)cc1NC(=O)Nc1cc(-c2cncnc2)ccc1OC(F)(F)F,1280 nM,10800 nM,–
CC(C)c1cccc(NC(=O)Nc2cccc(-c3cccc4[nH]nc(N)c34)c2)c1,1420 nM,280 nM,–
COc1ccc(C(=O)OCCN2CCOCC2)cc1NC(=O)Nc1cc(-c2cccnc2)cc(C(F)(F)F)c1,> 500000 nM,11100 nM,> 500000 nM
Cc1ccc(NC(=O)Nc2cccc(-c3cccc4[nH]nc(N)c34)c2)cc1Cl,1750 nM,510 nM,–
CCN(CC)CCOC(=O)c1ccc(OC)c(NC(=O)Nc2cc(-c3ccc(OC)nc3)ccc2OC(F)(F)F)c1,1730 nM,640 nM,–
Nc1n[nH]c2cccc(-c3cccc(NC(=O)Nc4ccccc4Cl)c3)c12,15800 nM,> 500000 nM,–
Cc1ccc(NC(=O)Nc2cccc(-c3cccc4[nH]nc(N)c34)c2)cc1,1660 nM,4450 nM,–
COc1ccc(C(=O)OCCN(C(C)C)C(C)C)cc1NC(=O)Nc1cc(-c2ccc3[nH]ccc3c2)ccc1OC(F)(F)F,2060 nM,360 nM,> 500000 nM
COc1ccc(C(=O)OCCN(C)C)cc1NC(=O)Nc1cc(-c2ccc3[nH]ccc3c2)ccc1OC(F)(F)F,950 nM,1760 nM,–
COc1ccc(-c2ccc(OC(F)(F)F)c(NC(=O)Nc3cc(C(=O)OCCN(C)C)ccc3OC)c2)cn1,910 nM,2010 nM,–
Cc1cccc(C)c1NC(=O)Nc1cccc(-c2cccc3[nH]nc(N)c23)c1,229000 nM,> 500000 nM,> 500 nM
Nc1n[nH]c2cccc(-c3cccc(NC(=O)Nc4ccc(Cl)c(C(F)(F)F)c4)c3)c12,3410 nM,1150 nM,–

# From ChEMBL document CHEMBL3632507, “Discovery of novel VEGFR-2 inhibitors. Part 5: Exploration of diverse hinge-binding fragments via core-refining approach” (Eur J Med Chem, 2015)
